Results: patent publication US8952054B2, “Small molecule inhibitors of MUC1 and methods of identifying the same” (Dana-Farber Cancer Institute, Inc., priority 2010, dated 2015)

What was measured:
[1] = system: MUC1-negative 293 cells; assay: Viable cell number by trypan blue exclusion, 293 cells; format: cell-based, human; conditions: 5 μM
Protocol: (§1) FIGS. 4A-E. Selectivity of MUC1/CQC for MUC1 expressing breast cancer cells. (FIG. 4A) ZR-75-1 cells were stably infected with an empty lentivirus (vector) or one expressing a MUC1 siRNA. Lysates for the infected cells were immunoblotted with the indicated antibodies. (FIG. 4B) ZR-75-1/vector cells were left untreated (diamonds), and ZR-75-1/vector (squares) and ZR-75-1/MUC1 siRNA (triangles) cells were treated with 5 μM MUC1/CQC peptide for the indicated times. Viable cell number was determined by trypan blue exclusion. (FIG. 4C) 293 cells were left untreated (diamonds), and treated with 5 μM MUC1/CQC (squares) or MUC1/AQA (triangles) for the indicated times. Viable cell number was determined by trypan blue exclusion. (FIG. 4D) MCF-10A cells were left untreated (left panel), and treated with 5 μM MUC1/CQC (middle panel) or MUC1/AQA (right panel). At 3 d, cells were analyzed for cell cycle distribution. […] Viable cell number was determined by trypan blue exclusion.
(§2) Human breast cancer ZR-75-1, ZR-75-1/vector, ZR-75-1/MUC1siRNA (Ren et al., 2004) cell lines were grown in RPMI1640 medium supplemented with 10% heat-inactivated fetal bovine serum (HI-FBS), 100 U/ml penicillin, and 100 μg/ml streptomycin (Invitrogen) in a humidified incubator at 37° C. and 5% CO2. […] Viability was determined by trypan blue exclusion.

[2] = system: ZR-75-1/vector cells; assay: Viable cell number by trypan blue exclusion, ZR-75-1/vector; format: cell-based, human; conditions: 5 μM
Protocol: as §1, §2

[3] = system: ZR-75-1/MUC1siRNA cells; assay: Viable cell number by trypan blue exclusion, ZR-75-1/MUC1siRNA; format: cell-based, human; conditions: 5 μM, versus ZR-75-1/vector
Protocol: as §1, §2

[4] = system: MCF-7 cells; assay: MCF-7 cell number (MTS), caspase-9 cleavage, PI uptake and colony formation; format: cell-based, human; conditions: for colony formation: 2 weeks
Protocol: FIGS. 14A-E—Apigenin suppresses MUC1 expression in MCF-7 cells. (FIG. 14A) MCF-7 cells were treated with DMSO vehicle, 75 μM apigenin or 75 μM baicalein for 3 d. Total RNA was assayed for MUC1 mRNA levels by qRTPCR. The results (mean+SD of 3 determinations) are expressed as relative MUC1 mRNA levels as compared to that obtained in cells treated with DMSO. (FIGS. 14B-C) MCF-7 cells were treated with the indicated concentrations of apigenin and baicalein for 3 days. Nuclear (FIG. 14B) and whole cell lysates (FIG. 14C) were immunoblotted with the indicated antibodies. D. Lysates from MCF-7 cells were infected to stably express a control lentivirus and one with a MUC1 shRNA were immunoblotted with the indicated antibodies. (FIG. 14E) The indicated MCF-7 cells were treated with […] apigenin for 3 d. Viable cell number was determined by the MTS assay. The results (mean+SD of 3 determinations) are expressed as percentage of control growth in the presence of DMSO.
FIGS. 15A-C—Apigenin inhibits MCF-7 clonogenic survival. (FIG. 15A) MCF-7 cells were treated with DMSO, 75 μM apigenin or 75 μM baicalein for 3 d. Lysates were immunoblotted with the indicated antibodies. (FIG. 15B) MCF-7 cells were treated with DMSO, 75 μM apigenin or 75 μM baicalein for 3 d, stained with propidium iodide and analyzed by flow cytometry. […] (FIG. 15C) MCF-7 cells were plated at a density of 1000 cells/6 cm dish. At 24 h after seeding, DMSO or apigenin at concentrations of 25, 50 and 75 μM was added to the medium. After 2 weeks, colonies were stained with crystal violet. The results (mean+SD of 3 determinations) are expressed as percentage of control colony formation in the presence of DMSO.

[5] = system: BT474 cells; assay: BT474 viability (MTS) and colony formation; format: cell-based, human
Protocol: (§3) FIGS. 16A-D—Effects of apigenin on breast cancer cells without and with endogenous MUC1 expression. (FIG. 16A) Lysates from human MCF-7, HCC1937 and BT474 cells were immunoblotted with the indicated antibodies. (FIG. 16B) BT474 cells were treated with indicated concentrations of apigenin and baicalein for 3 d, washed and then treated for an additional 3 d. Lysates were immunoblotted with the indicated antibodies. (FIG. 16C) BT474 (triangles) and HCC1937 (squares) cells were treated with apigenin for 3 d. Viable cell numbers were determined by MTS assay. The results (mean+SD of 3 determinations) are expressed as percentage of control growth in the presence of DMSO. (FIG. 16D) BT474 cells were plated at a density of 5000 cells/6 cm dish. At 24 h after seeding, DMSO or apigenin at concentrations of 25, 50 and 75 μM was added to the medium. After 2 weeks, colonies were stained with crystal violet. The results (mean+SD of 3 determinations) are expressed as percentage of control colony formation in the presence of DMSO.

[6] = biological target: CYP2C9 (Homo sapiens, UniProt P11712); conditions: cited from earlier work
Chain of CYP2C9 (P11712 whole entry, species assumed): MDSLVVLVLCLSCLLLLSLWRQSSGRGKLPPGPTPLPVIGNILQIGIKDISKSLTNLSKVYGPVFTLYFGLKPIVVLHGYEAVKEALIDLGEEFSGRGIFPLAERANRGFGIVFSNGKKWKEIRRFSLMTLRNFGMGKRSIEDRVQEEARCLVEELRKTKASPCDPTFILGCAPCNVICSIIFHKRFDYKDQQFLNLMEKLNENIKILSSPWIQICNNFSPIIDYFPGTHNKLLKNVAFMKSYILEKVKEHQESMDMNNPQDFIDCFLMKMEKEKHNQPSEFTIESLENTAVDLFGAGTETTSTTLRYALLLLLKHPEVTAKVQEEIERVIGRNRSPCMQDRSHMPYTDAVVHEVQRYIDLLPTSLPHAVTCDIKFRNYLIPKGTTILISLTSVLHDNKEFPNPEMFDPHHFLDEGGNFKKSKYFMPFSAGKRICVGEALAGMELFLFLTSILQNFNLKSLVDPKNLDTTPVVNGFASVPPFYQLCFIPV

[7] = biological target: T1, MUC1-C (Homo sapiens, UniProt P15941); assay: Immunoblot of MUC1-C expression in BT474 cells; format: cell-based; design: endogenous in cells; conditions: BT474, 3 d then additional 3 d
T1 sequence (P15941 1098-1255 limits assumed): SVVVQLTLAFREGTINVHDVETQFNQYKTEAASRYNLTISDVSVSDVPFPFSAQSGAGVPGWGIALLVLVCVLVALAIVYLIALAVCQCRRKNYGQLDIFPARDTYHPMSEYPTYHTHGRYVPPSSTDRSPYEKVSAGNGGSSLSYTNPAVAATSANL
Protocol: as §3

Row | MUC1-C expression [7] | SMILES | growth / viable cell number [1] | growth / viable cell number [2] | growth / viable cell number [3] | colony formation ([4]; MCF-7, 25 μM) | caspase-9 cleavage ([4]; MCF-7, 75 μM, 3 d) | cell membrane integrity (PI) ([4]; MCF-7, 75 μM, 3 d) | effect of silencing MUC1 (shRNA) on apigenin-induced decreases in cell number ([4]; MCF-7, 75 µM, 3 d, MTS) | colony formation ([4]; MCF-7, higher concentrations (50 and 75 μM)) | clonogenic survival ([5]; BT474, 25, 50 and 75 μM, 2 weeks) | viability (MTS) ([5]; BT474, 3 d) | inhibition of CYP2C9 [6]
1 | – | CC[C@H](C)[C@H](NC(=O)[C@H](CC(=O)O)NC(=O)[C@H](CC(C)C)NC(=O)[C@H](CCC(N)=O)NC(=O)CNC(=O)[C@H](Cc1ccc(O)cc1)NC(=O)[C@H](CC(N)=O)NC(=O)[C@H](CCCCN)NC(=O)[C@H](CCCNC(=N)N)NC(=O)[C@H](CCCNC(=N)N)NC(=O)[C@H](CS)NC(=O)[C@H](CCC(N)=O)NC(=O)[C@H](CS)NC(=O)[C@@H](CCCNC(=N)N)NC(=O)[C@@H](CCCNC(=N)N)NC(=O)[C@@H](CCCNC(=N)N)NC(=O)[C@@H](CCCNC(=N)N)NC(=O)[C@@H](CCCNC(=N)N)NC(=O)[C@@H](CCCNC(=N)N)NC(=O)[C@@H](CCCNC(=N)N)NC(=O)[C@@H](CCCNC(=N)N)NC(=O)[C@H](N)CCCNC(=N)N)C(=O)N[C@@H](Cc1ccccc1)C(=O)N1CCC[C@H]1C(=O)O [MUC1/CQC] | no apparent effect | growth arrest and death | substantially less effect | – | – | – | – | – | – | – | –
2 | downregulation of MUC1-C expression | O=c1cc(-c2ccc(O)cc2)oc2cc(O)cc(O)c12 [Apigenin, 4′,5,7-trihydroxyflavone] | – | – | – | substantial decrease in colonies | cleavage of caspase-9 | loss of cell membrane integrity | partially decreased sensitivity | complete loss of survival | concentration dependent decreases in clonogenic survival | loss of viability | potent inhibitor
